Laboratory results published in patent US20200216837A1, “DRUG-TARGET IDENTIFICATION BY RAPID SELECTION OF DRUG RESISTANCE MUTATIONS” (KATHOLIEKE UNIVERSITEIT LEUVEN, priority 2016, published 2020).

Legend:
[1] = test system: HAP1 cells; test: Cell viability assay of wild-type versus mutagenized drug-resistant cells; type: cell-based, human; conditions: for Drug sensitivity of surviving colonies after tiling library transduction and drug selection: HAP1 Cas9 cells, FDA_target subpool B with bortezomib 14 days, or investigational library D with KPT-9274; for Drug sensitivity of HDR-edited cells carrying NAMPT mutations: NAMPT mutations reinstalled in native locus of parental cells by CRISPR-induced HDR; for Drug sensitivity of colonies after Cas9/sgRNA targeting of the resistance hot spot: HAP1 cells, sgRNAs at XPO1 C528, KIF11 D130/A133, ERCC3 S162/Y163, NHEJ repair, 4 drug concentrations for selection; for Drug sensitivity of parental cells with a major protein variant reinstalled by CRISPR/Cas9-mediated HDR: XPO1 C528S,E529V,Q530H,K531I, KIF11 L132del, ERCC3 V166_K167insL in native locus
Procedure: Cells were transfected with the Neon Electroporation System after resuspension in Buffer R. DNA plasmids expressing the spCas9 or asCpf1 endonuclease and guiding RNA were added to a concentration of 37.5 ng/μL per plasmid and electroporated at 1,400-1,475V with 3 pulses of 10 ms. Two to three days after transfection, cells were treated with the respective drug to select for resistance over 7-14 days. Colonies were imaged with an IncuCyte© ZOOM (Essen Bioscience).
For HDR, a 123-134 bases long ssDNA oligonucleotide (850 ng) was added to the electroporation mixture in addition to the respective sgRNA and spCas9 expressing plasmids. Two days after electroporation, cells were treated with respective drugs for 5 days before imaging with an IncuCyte© ZOOM (Essen Bioscience). Following imaging, the HDR-template transfected cells were grown under drug selection for an additional week before any further experiments were performed.
Cell viability assays were performed by plating 3,000 HAP1, 5,000 HCT 116 or HL-60 cells in 96-well plates containing DMSO or a dilution of the test compound. Cells were incubated for 72 hours at 37° C. and 5% CO2. Cell viability was then assessed with the CellTiter 96® AQueous Non-Radioactive Cell Proliferation Assay (Promega) and colorimetric signals were measured with a Safire2™ (TECAN). Assays were performed in triplicate and each experiment was repeated at least once. Obtained values were adjusted with the background signal and divided by the DMSO control. Relative data values were then visualized and analyzed using a log-based 4 parameter model (GraphPad Prism).
For single guide drug resistance validation assays, 125.000 cells were transfected with Cas9 and the individual sgRNAs using the Neon Electroporation system as described above and plated into 6-well plates. Cells were treated 2-3 days after transfection with the respective compound for a period of 5-7 days, the medium was regularly refreshed and dead cells were washed away before imaging confluency using a live cell analysis system (Essen Bioscience, IncuCyte ZOOM®).

[2] = test system: HAP1 cells stably expressing spCas9 or asCpf1; test: CRISPR mutagenesis scanning drug-target identification screen with tiling sgRNA/crRNA libraries; type: cell-based, human; conditions: 30 nM bortezomib, 300 nM KPT-9274 or 2 μM selinexor for 2 weeks
Procedure: FastQ files obtained after MiSeq sequencing were demultiplexed with the MiSeq Reporter software (Illumina). Demultiplexed and paired reads were trimmed, filtered and then aligned to the reference amplicon in Geneious (v9, Biomatters). To obtain haplotypes present in drug-resistant samples, bam files were analyzed with the CrispRVariants package run in RStudio by defining a 35-50 bp spanning region across the endonuclease cut site, as defined by pre-analysis of localized variants within Geneious. For this purpose, the CrispRVariants “readtotarget” input was run with parameters “upstream.snv” (30) and “downstream.snv” (15) on corresponding paired end sequencing reads to allow for haplotype determination. Haplotype nucleotide sequences were extracted with a small script. Nucleotide sequences were then visualized and mapped to the reference in Geneious v9 (Biomatters) and amino acid variants were determined. For visualization of the spectra of single nucleotide variants, NGS reads were aligned to the reference gene. Nucleotide occurrence frequencies were then determined in R on the aligned NGS reads using the deep SNV Bioconductor package. Sequences containing sgRNA/crRNAs from the lentiviral screens were trimmed from adapter sequences. Individual sgRNA/crRNA sequencing reads were then aligned to the pLCKO-U6-sgRNA vector within Geneious, counted with MaGeCK^18 and visualized in GraphPad Prism.
HAP1 cells stably expressing spCas9 or asCpf1 were resuspended in supplemented IMDM containing 8 μg/mL polybrene and transduced with lentiviral particles containing the desired sgRNA/crRNAs at a MOI of 0.25 (coverage of 5,000× per sgRNA for spCas9) or 0.35 (coverage of 15,000× per crRNA for asCpf1) by spinfection in 12-well plates. The next day cells were transferred to T150 cell flasks and selected with 1 μg/mL puromycin. Then 4 million (ispinesib/selinexor) or 10 million (KPT-9274/bortezomib) cells were harvested for DNA extraction and the remaining cells were treated for a period of 2 weeks with 8 nM ispinesib, 30 nM bortezomib, 300 nM KPT-9274 or 2 μM selinexor. […]

SMILES	Drug sensitivity of surviving colonies after tiling library transduction and drug selection [1]	Target gene identified by enriched guide RNAs and resistance mutations [2]	Drug sensitivity of HDR-edited cells carrying NAMPT mutations [1]	Drug sensitivity of the original KPT-9274 resistant cell pool ([1]; cell pool surviving the library D mutagenesis screen with KPT-9274, compared to wild-type)	Drug sensitivity of colonies after Cas9/sgRNA targeting of the resistance hot spot [1]	Drug sensitivity of parental cells with a major protein variant reinstalled by CRISPR/Cas9-mediated HDR [1]	Drug sensitivity of colonies after AsCpf1 tiling crRNA library and drug selection ([1]; HAP1 AsCpf1 cells, 10 genes, 1,100 crRNAs, selinexor 2 μM)
CC(C)C[C@H](NC(=O)[C@H](Cc1ccccc1)NC(=O)c1cnccn1)B(O)O [bortezomib]	resistant	PSMB5	–	–	–	–	–
Nc1ccc(/C=C/C(=O)NCc2cc3cc(-c4ccc(C(=O)N5CCC(F)(F)CC5)cc4)cc(-c4ccc(F)cc4)c3o2)cn1 [KPT-9274]	resistant	NAMPT	resistant	–	–	–	–
O=C(/C=C/c1cccnc1)NCCCCC1CCN(C(=O)c2ccccc2)CC1 [FK866]	–	–	cross-resistant	cross-resistant	–	–	–
Cc1ccc(C(=O)N(CCCN)[C@@H](c2nc3cc(Cl)ccc3c(=O)n2Cc2ccccc2)C(C)C)cc1 [ispinesib]	–	–	–	–	resistant	resistant	–
CC(C)[C@]12O[C@H]1[C@@H]1O[C@]13[C@]1(O[C@H]1C[C@H]1C4=C(CC[C@@]13C)C(=O)OC4)[C@@H]2O [triptolide]	–	–	–	–	resistant	resistant	–
O=C(/C=C\n1cnc(-c2cc(C(F)(F)F)cc(C(F)(F)F)c2)n1)NNc1cnccn1 [selinexor]	–	XPO1	–	–	resistant	resistant	resistant
